Reference: patent publication US9981037B2, “Combination therapy of beta-glycolipids and antibodies for the treatment of immune-related disorders” (HADASIT MEDICAL RESEARCH SERVICES AND DEVELOPMENT LTD., priority 2008, dated 2018)

Tests used:
[1] = tested on: Peripheral blood lymphocytes; test: Proliferation of peripheral blood lymphocytes stimulated in vitro with anti-CD3 antibody; type: in vivo, human
Experimental: Nine subjects (3/group) were orally administered 0.2 mg, 1.0 mg or 5.0 mg of OKT3 daily for 5 days and immune parameters measured on days 5, 10 and 30 days (FIG. 12). Six subjects (3/group) received 7.5 mg of beta glucosylceramide in combination with 0.2 mg or 1.0 mg of OKT3 and 3 subjects received GC alone. All subjects were treated with 20 mg of Omeprazole (a proton pump inhibitor) during the 5 days of dosing. Dosing occurred in the morning before breakfast at the study site following a 8 hours fast. PBMCs were isolated from blood samples using Ficol Hypaque solution. To measure proliferation, 2×10^5 cells per well were cultured in triplicate in RPMI 1640 medium with 5% FBS (Biological Industries, Israel), 100 units/ml penicillin, 100 µg/ml streptomycin, 1% Glutamine, 1% non essential […], 1% sodium pyruvate and β-mercapto-ethanol (Biological Industries, Israel). Cells were stimulated with pre-coated antibodies (in 200 μl PBS/well):μg/well of anti OKT-3 mAb (Ortho Biotech Inc, New Jersey, USA) or 5 μg/ml soluble anti-CD3 mAb (eBioscience, CA, USA) or 2.5 μg/ml anti-CD28 mAb (R&D systems, MN, USA). One set of the above wells were added nothing while 10 μg of GC was added to a similar set for 72 h in culture at 37° C. with 5% CO2. Supernatants were collected for IL-13, IL-17 and IFN-γ. Enzyme-linked immunosorbent assays for these cytokines were performed according to the manufacturer's protocol (R&D Systems, Minneapolis, Minn.). For TGF-β, 2×10^5 cells per well were cultured in serum free media (Biotarget, Biological Industries, Israel). After collecting the supernatants, 1 µCi [^3H]thymidine (Amersham Biosciences, UK) was added to each well, and cells were harvested 18 h later. Proliferation was measured by scintillation counting. Unlike what has been reported for treatment with IV anti-CD3 (which is also given at a dose of 5 mg per day for five days), no decrease in the CD3+ lymphocyte counts or modulation of CD3 from the T cell surface was observed. […] An identical pattern was observed when results were calculated as stimulation indices.

T cells = test: FACS of activation and regulatory markers on T cells; type: in vivo, human
Experimental: Frozen PBMCs were used for sorting different cell populations, surface staining, and proliferation assays, and cytokine measurements. Cell sorting was performed by thawing […] PBMCs at room temperature (RT) and washing themed twice in medium at RT in 50-ml tubes in a 10-ml volume at 1,400 rpm. Cells were suspended to 20×10^6/ml and stained with seven colors staining of cells using Fc block, Lin-FITC, CD11c-APC, CD123-PE, CD3-Amcyan, CD4-Alexa700, CD25-PB, and 7-AAD was performed. Compensation controls, including an unstained control, were prepared. All samples were washed with medium and filtered into 15-ml tubes with 2 ml volume each to a total volume of 2 ml. CD4+ effector T cells, CD4+ regulatory T cells, myeloid DCs, and plasmacytoid DCs were sorted. Tubes were washed to get retrieve all sticky cells and spin them at 1,400 rpm. All cell populations were put in 350 μl of RLT 350 ul (lysis buffer), and transferred to eppendorff microtubes, and froze at −70° C. RNA was prepared using Qiagen micro kits (Valencia, Calif., USA) and cDNA was prepared using Applied Biosystems kits (Foster City, Calif., USA). We performed real-time PCR (RT-PCR) for different genes on in regulatory T cells, effector T cells, and DCs was performed.
For surface staining, one tube of frozen PBMCs was thawed at room temperature (RT) and washed twice in medium at RT in 50-ml tubes (10-ml volume) at 1,400 rpm. Cells were re-suspended cells at 8-10×10^6 cells/ml and 100 μl was aliquoted into each of 100 ul in 11 wells. For LAP+ cells (two wells), controls wells were preincubated with rLAP for 20 mins, and seven-colors staining of cells using CD3-Amcyan, CD4-Alexa700, CD8-APC, CD25-PB, and LAP-PE for 40 mins was preformed for 40 minutes. Cells were washed and stained with Annexin FITC and 7-AAD in Annexing binding buffer for 15 minutes. Cells were washed and analyzed immediately in Annexin Binding Buffer.
For Foxp3 surface staining (two wells), surface six-colors staining of cells using CD3-Amcyan, CD4-Alexa700, CD8-APC, and CD25-PB were performed for 30 minutes. Intracellular staining for IC/Foxp3-PE from eBiosciences was followed. For all other surface markers (7wellsseven wells), seven—color staining of cells was performed, using CD3-Amcyan, CD4-Alexa700, CD8-APC, CD25-PB, and Annexin FITC, 7-AAD, and IC/CD62L/CD69/CD45RO/CD127/CD28/HLA-DR-PE was performed. Cells were then washed Wash twice and Fix fixed the cells with 0.1% paraformaldehyde. Compensation controls, including an unstained control, were prepared. (Lin-FITC, CD11c-APC, CD123-PE, and CD3-Amcyan were tested in 1 μl/100 μl; CD4-Alexa700, CD25-PB, and 7-AAD were tested in 0.5 ul/100 μl; and LAP-PE, and Annexin-FITC were tested in 3 ul/100 μl).
For surface staining, freshly isolated PBMCs were suspended at 8-10×10^6 cells/ml. Surface two to three colors staining of cells were done with the following surface antibodies: CD4-FITC/CD25-PE, CD8− FITC/CD25-PE, CD3-APC/CD69-PE, CD11c-APC/Lin-FITC/CD86-PE, CD11c-APC/Lin-FITC/CD83-PE, CD11c-APC/Lin-FITC/HLAdr-PE. For LAP staining cells were preincubated with rLAP/control antibody for 20 mins, and stained with CD4-FITC and CD25-PE or CD8-FITC. […]
The inventors next investigated activation of markers and markers associated with regulation on T cells following oral OKT3 treatment. Regulatory T cells were measured by CD25hi, and effector cells were measured by CD25int/lo markers. […]

OKT3: murine monoclonal anti-CD3 antibody (Orthoclone OKT-3, Ortho Biotech)
subjects with increase in proliferation that peaked at day five ([1]; 0.2 mg oral): one subject | subjects with increase in proliferation that peaked at day five ([1]; 1.0 mg oral daily for 5 days, three subjects): all three subjects | subjects with increase in proliferation that peaked at day five ([1]; 5 mg oral): two subjects | subjects with similar pattern (increase) for CD8+CD25+ T cells (T cells; 0.2 mg oral, not shown): two subjects | CD4+CD25+ and CD8+CD25+ T cells (T cells; 1.0 mg fed group): increase | CD25hi Foxp3+ cells and CD25hi CTLA4 cells (T cells; 1.0 mg oral): increase | expression of TGF-β on CD25int/lo T cells (T cells; 1.0 mg oral): increase | subjects with similar pattern (increase) for CD8+CD25+ T cells (T cells; 1.0 or 5.0 mg oral): all six subjects
